Test results from PubChem BioAssay (NCI).
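Briefly, cells in 96-well plates were exposed to five compound concentrations for 48 h, and endpoints were estimated by linear interpolation. TGI: total growth inhibition.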

How the values were obtained:
Assay in all cases: growth of human tumour cells (NCI), 48 h
SK-OV-3 ovarian = test system: SK-OV-3 ovarian
SR leukemia = test system: SR leukemia
KM12 colon = test system: KM12 colon
786-0 renal = test system: 786-0 renal
HCT-116 colon = test system: HCT-116 colon
OVCAR-8 ovarian = test system: OVCAR-8 ovarian
UACC-257 melanoma = test system: UACC-257 melanoma
SW-620 colon = test system: SW-620 colon
SF-268 CNS = test system: SF-268 CNS
OVCAR-3 ovarian = test system: OVCAR-3 ovarian
HCT-15 colon = test system: HCT-15 colon
SF-539 CNS = test system: SF-539 CNS
SN12C renal = test system: SN12C renal
SK-MEL-2 melanoma = test system: SK-MEL-2 melanoma
UO-31 renal = test system: UO-31 renal
HT29 colon = test system: HT29 colon
HOP-62 NSCLC = test system: HOP-62 NSCLC
IGROV1 ovarian = test system: IGROV1 ovarian
SK-MEL-28 melanoma = test system: SK-MEL-28 melanoma
MDA-MB-435 = test system: MDA-MB-435
MOLT-4 leukemia = test system: MOLT-4 leukemia
NCI-H226 lung = test system: NCI-H226 lung
LOX IMVI melanoma = test system: LOX IMVI melanoma
SF-295 CNS = test system: SF-295 CNS
HCC-2998 colon = test system: HCC-2998 colon
BT-549 breast = test system: BT-549 breast
ACHN renal = test system: ACHN renal
NCI-H23 lung = test system: NCI-H23 lung
NCI-H522 lung = test system: NCI-H522 lung
A549 NSCLC = test system: A549 NSCLC
A498 renal = test system: A498 renal
OVCAR-5 ovarian = test system: OVCAR-5 ovarian
K-562 leukemia = test system: K-562 leukemia
PC-3 prostate = test system: PC-3 prostate
MCF7 breast = test system: MCF7 breast
HL-60(TB) leukemia = test system: HL-60(TB) leukemia
U251 CNS = test system: U251 CNS
SNB-19 CNS = test system: SNB-19 CNS
MDA-MB-231 breast = test system: MDA-MB-231 breast
HOP-92 NSCLC = test system: HOP-92 NSCLC
MALME-3M melanoma = test system: MALME-3M melanoma
COLO 205 colon = test system: COLO 205 colon
DU-145 prostate = test system: DU-145 prostate
UACC-62 melanoma = test system: UACC-62 melanoma
NCI-H460 lung = test system: NCI-H460 lung
TK-10 renal = test system: TK-10 renal
T-47D breast = test system: T-47D breast
NCI/ADR-RES ovarian = test system: NCI/ADR-RES ovarian
CCRF-CEM leukemia = test system: CCRF-CEM leukemia
EKVX NSCLC = test system: EKVX NSCLC
SK-MEL-5 melanoma = test system: SK-MEL-5 melanoma
M14 melanoma = test system: M14 melanoma
HS 578T breast = test system: HS 578T breast
RPMI-8226 leukemia = test system: RPMI-8226 leukemia
OVCAR-4 ovarian = test system: OVCAR-4 ovarian
RXF 393 renal = test system: RXF 393 renal
SNB-75 CNS = test system: SNB-75 CNS
CAKI-1 renal = test system: CAKI-1 renal
MDA-N = test system: MDA-N

## CC(C)(C)c1ccc(S(=O)(=O)N2C(c3cccc(C4CC[C@@H](C(=O)O)N4S(=O)(=O)c4ccc(C(C)(C)C)cc4)c3)CC[C@H]2C(=O)O)cc1 (stereo partly drawn)
SK-OV-3 ovarian
  TGI: > 100 µM
SR leukemia
  TGI: > 100 µM
KM12 colon
  TGI: > 100 µM
786-0 renal
  TGI: > 100 µM
HCT-116 colon
  TGI: > 100 µM
OVCAR-8 ovarian
  TGI: > 100 µM
UACC-257 melanoma
  TGI: > 100 µM
SW-620 colon
  TGI: > 100 µM
SF-268 CNS
  TGI: > 100 µM
OVCAR-3 ovarian
  TGI: > 100 µM
HCT-15 colon
  TGI: > 100 µM
SF-539 CNS
  TGI: > 100 µM
SN12C renal
  TGI: > 100 µM
SK-MEL-2 melanoma
  TGI: > 100 µM
UO-31 renal
  TGI: 87.3 µM
HT29 colon
  TGI: > 100 µM
HOP-62 NSCLC
  TGI: > 100 µM
IGROV1 ovarian
  TGI: > 100 µM
SK-MEL-28 melanoma
  TGI: > 100 µM
MDA-MB-435
  TGI: > 100 µM
MOLT-4 leukemia
  TGI: > 100 µM
NCI-H226 lung
  TGI: > 100 µM
LOX IMVI melanoma
  TGI: > 100 µM
SF-295 CNS
  TGI: > 100 µM
HCC-2998 colon
  TGI: > 100 µM
BT-549 breast
  TGI: > 100 µM
ACHN renal
  TGI: > 100 µM
NCI-H23 lung
  TGI: > 100 µM
NCI-H522 lung
  TGI: > 100 µM
A549 NSCLC
  TGI: > 100 µM
A498 renal
  TGI: > 100 µM
OVCAR-5 ovarian
  TGI: > 100 µM
K-562 leukemia
  TGI: > 100 µM
PC-3 prostate
  TGI: > 100 µM
MCF7 breast
  TGI: > 100 µM
HL-60(TB) leukemia
  TGI: > 100 µM
U251 CNS
  TGI: > 100 µM
SNB-19 CNS
  TGI: > 100 µM
MDA-MB-231 breast
  TGI: > 100 µM
HOP-92 NSCLC
  TGI: > 100 µM
MALME-3M melanoma
  TGI: > 100 µM
COLO 205 colon
  TGI: > 100 µM
DU-145 prostate
  TGI: > 100 µM
UACC-62 melanoma
  TGI: > 100 µM
NCI-H460 lung
  TGI: > 100 µM
TK-10 renal
  TGI: > 100 µM
T-47D breast
  TGI: > 100 µM
NCI/ADR-RES ovarian
  TGI: > 100 µM
CCRF-CEM leukemia
  TGI: > 100 µM
EKVX NSCLC
  TGI: > 100 µM
SK-MEL-5 melanoma
  TGI: > 100 µM
M14 melanoma
  TGI: > 100 µM
HS 578T breast
  TGI: > 100 µM
RPMI-8226 leukemia
  TGI: > 100 µM
OVCAR-4 ovarian
  TGI: > 100 µM
RXF 393 renal
  TGI: > 100 µM
SNB-75 CNS
  TGI: > 100 µM
CAKI-1 renal
  TGI: > 100 µM
MDA-N
  TGI: > 100 µM

## N#Cc1c2c(c(Nc3ccc(F)cc3)n3c1nc1ccccc13)CCCC2
SK-OV-3 ovarian
  TGI: > 100 µM
SR leukemia
  TGI: > 100 µM
KM12 colon
  TGI: > 100 µM
786-0 renal
  TGI: > 100 µM
HCT-116 colon
  TGI: > 100 µM
OVCAR-8 ovarian
  TGI: > 100 µM
UACC-257 melanoma
  TGI: > 100 µM
SW-620 colon
  TGI: > 100 µM
SF-268 CNS
  TGI: > 100 µM
OVCAR-3 ovarian
  TGI: > 100 µM
HCT-15 colon
  TGI: > 100 µM
SF-539 CNS
  TGI: > 100 µM
SN12C renal
  TGI: > 100 µM
SK-MEL-2 melanoma
  TGI: > 100 µM
UO-31 renal
  TGI: > 100 µM
HT29 colon
  TGI: > 100 µM
HOP-62 NSCLC
  TGI: > 100 µM
IGROV1 ovarian
  TGI: > 100 µM
SK-MEL-28 melanoma
  TGI: > 100 µM
MDA-MB-435
  TGI: > 100 µM
MOLT-4 leukemia
  TGI: > 100 µM
NCI-H226 lung
  TGI: > 100 µM
LOX IMVI melanoma
  TGI: > 100 µM
SF-295 CNS
  TGI: > 100 µM
HCC-2998 colon
  TGI: > 100 µM
BT-549 breast
  TGI: > 100 µM
ACHN renal
  TGI: > 100 µM
NCI-H23 lung
  TGI: > 100 µM
NCI-H522 lung
  TGI: > 100 µM
A549 NSCLC
  TGI: > 100 µM
A498 renal
  TGI: > 100 µM
OVCAR-5 ovarian
  TGI: > 100 µM
K-562 leukemia
  TGI: > 100 µM
PC-3 prostate
  TGI: > 100 µM
MCF7 breast
  TGI: > 100 µM
HL-60(TB) leukemia
  TGI: > 100 µM
U251 CNS
  TGI: > 100 µM
SNB-19 CNS
  TGI: > 85.2 µM
MDA-MB-231 breast
  TGI: > 100 µM
HOP-92 NSCLC
  TGI: > 100 µM
MALME-3M melanoma
  TGI: > 100 µM
COLO 205 colon
  TGI: > 100 µM
DU-145 prostate
  TGI: > 100 µM
UACC-62 melanoma
  TGI: > 100 µM
NCI-H460 lung
  TGI: > 100 µM
TK-10 renal
  TGI: > 100 µM
T-47D breast
  TGI: > 100 µM
NCI/ADR-RES ovarian
  TGI: > 100 µM
CCRF-CEM leukemia
  TGI: > 100 µM
EKVX NSCLC
  TGI: > 100 µM
SK-MEL-5 melanoma
  TGI: > 100 µM
M14 melanoma
  TGI: > 100 µM
HS 578T breast
  TGI: > 100 µM
RPMI-8226 leukemia
  TGI: > 100 µM
OVCAR-4 ovarian
  TGI: > 100 µM
RXF 393 renal
  TGI: > 86 µM
SNB-75 CNS
  TGI: > 100 µM
CAKI-1 renal
  TGI: > 100 µM
MDA-N
  TGI: > 100 µM
